Experimental data as given in patent publication US20260077055A1, “COMPOSITIONS OF POLYPLEXES AND SAPONINS” (SAPREME TECHNOLOGIES B.V., priority 2022, published 2026).

Tested on: HEK293FT cells
Test: pEGFP-N3 polyplex transfection of HEK293FT cells, live cell imaging
Assay type: cell-based
Description: Spectrophotometry: Concentrations were determined using either a Thermo Nanodrop 2000 spectrometer or Perkin Elmer Lambda 365 Spectrophotometer. DLS measurements: DLS measurements were performed on a Malvern Nano ZS (Malvern Instruments, U.K.), operating at 633 nm with a 173° scattering angle, at 25 or 37° C. DLS mean diameters were obtained from the intensity particle size distribution provided by Malvern Zetasizer Software. DLS histograms were obtained from the intensity particle size distributions. Zeta-potential: The zeta-potential values of the polyplexes were obtained by laser doppler anemometry (LDA), measuring the mean electrophoretic mobility (Malvern Zetasizer Nano ZS, Malvern Instruments, U.K.). Measurements were performed in 10 mM HEPES pH 7.1, 150 mM NaCl. TEM measurements: TEM measurements were performed on a JEOL JEM-1011 operated at 100 kV electron microscope, equipped with a camera S5 MegaView G2. A drop of a solution of polyplexes (0.1 mg/mL) was settled on a PELCO® TEM carbon type-B film copper grid and allowed to dry at room temperature for 1 h. Infrared Spectroscopy: FT-IR spectra were recorded on a Bruker Vertex 70v, equipped with a RockSolid interferometer, after preparing the samples (1-2 mg) as KBr pellets. Spectra were processed using OPUS 7.8 software (Bruker). NMR Spectroscopy: 1H NMR spectra were recorded on a 11.7 T Bruker DRX-500 spectrometer. Chemical shifts are reported in ppm (o units) downfield from the HOD residual solvent peak (CD3OD). Experiments were recorded acquiring 64-512 scans, with a pre-scan delay (d1) of 12 s, and an acquisition time (aq) of 4 s at 300 K. 13C NMR spectrum was recorder on a 9.39 T Varian Innova 400 spectrometer. MestReNova 14.2 software (Mestrelab Research) was used for spectra processing. Cell culture conditions and treatments: HEK293FT, A431, A2058, Neuro2A, Hepa1-6 and MDA-MB 468 were maintained in 10% FBS-supplemented DMEM medium (PAN-Biotech GmbH, or Lonza Group, Basel, Switzerland)+Pen/Strep at 37° C. with 5% CO2. […]

CC(=O)OC1C(C)OC(OC2C(C)OC(OC(=O)[C@]34CCC(C)(C)CC3C3=CCC5[C@@]6(C)CC[C@H](OC7OC(C(=O)O)C(O)C(OC8OCC(O)C(O)C8O)C7OC7OC(CO)C(O)C(O)C7O)[C@@](C)(/C=N/NC(=O)CCCCCN7C(=O)C=CC7=O)C6CC[C@@]5(C)[C@]3(C)C[C@H]4O)C(OC3OC(C)C(OC4OCC(O)C(OC5OC(CO)C(O)C(O)C5O)C4O)C(O)C3O)C2O)C(O)C1OC1OCC(O)C(O)C1O (stereo partly drawn) [SO1861-EMCH]
pEGFP-N3 transfection (GFP expression) (40 pM or 120 pM pEGFP-N3, N/P 8, SO1861-EMCH = 4000 nM co-administered with PAMAM G5-(PEG N3)3.5 polyplexes): nearly all cells were transfected | toxicity (cell confluency) (40 pM or 120 pM pEGFP-N3 polyplexes, N/P 8, SO1861-EMCH = 4000 nM co-administered with PAMAM G5-(PEG N3)3.5 polyplexes): strong toxicity was observed | toxicity of SO1861-EMCH alone (4000 nM, without polyplex (data not shown)): not toxic
